Measurements reported in ChEMBL document CHEMBL1127735, “Importance of parallel vectors and "hydrophobic collapse" of the aligned aromatic rings: discovery of a potent substance P antagonist” (J Med Chem, 1994).
pKi: −log10 of the molar value.

Biological target: Substance-P receptor (Homo sapiens, UniProt P25103)
Experiment: In vitro binding affinity against substance P (NK-1) receptor in human IM-9 cell using [125I]BH-SP
Type: cell-based

Sequence of Substance-P receptor (P25103 whole entry): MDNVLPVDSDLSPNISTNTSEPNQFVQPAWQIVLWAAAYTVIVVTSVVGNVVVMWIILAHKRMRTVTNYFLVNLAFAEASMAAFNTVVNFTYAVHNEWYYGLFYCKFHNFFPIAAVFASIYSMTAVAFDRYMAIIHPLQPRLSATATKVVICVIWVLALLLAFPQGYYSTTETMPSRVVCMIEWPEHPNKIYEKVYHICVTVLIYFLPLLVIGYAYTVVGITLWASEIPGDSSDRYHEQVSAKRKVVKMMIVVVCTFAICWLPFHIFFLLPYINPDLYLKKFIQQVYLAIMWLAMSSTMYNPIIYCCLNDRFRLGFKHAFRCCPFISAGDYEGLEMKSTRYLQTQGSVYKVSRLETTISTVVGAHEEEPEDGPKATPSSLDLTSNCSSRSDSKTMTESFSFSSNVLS

Row | Structure (SMILES) | pKi
1 | COc1ccccc1[C@@H]1CC[C@@]2(CCCN[C@H]2c2ccccc2)NC1 | 8.70
2 | COc1ccccc1[C@@H]1CC[C@@]2(CCCN[C@H]2c2ccccc2)N1 | < 5.00
